Structures can show the parent of a compound that is named as a salt. Where two headings read alike, the source gives them in different places.

The inhibition is the percentage by which the read-out fell short of the control.

The test concerns Helminthosporium oryzae. Description: Mycelial growth test. The settings on record: for inhibition at 20 ppm / inhibition at 5 ppm / inhibition at 10 ppm / inhibition at 40 ppm: Bipolaris oryzae, 72 h; for Percent Fungus Growth Inhibition: HO, 72 hours.
Setting [1] is: read-out: Percent Fungus Growth Inhibition, HO, 20 ppm, 72 hours.
Where [2] appears, read: read-out: Percent Fungus Growth Inhibition, HO, 5 ppm, 72 hours.
Setting [3] is: read-out: Percent Fungus Growth Inhibition, HO, 10 ppm, 72 hours.
[4] abbreviates: read-out: Percent Fungus Growth Inhibition, HO, 40 ppm, 72 hours.
Where [5] appears, read: read-out: Percent Fungus Growth Inhibition.

Experimental: HO = Helminthosporium oryzae
Aliquots of previously prepared solutions of active ingredient in acetone were added to tubes containing 20 ml of sterile, melted potato dextrose agar that had been cooled to 50° C. to provide mixtures of 40, 20, 10, 5 and 2.5 ppm. The tubes were shaken to ensure thorough mixing of the chemical with the agar, and the mixture poured into petri dishes having 4 quadrants to solidify. Each quadrant was inoculated with a 4 mm diameter disc of agar containing mycelium of the test fungi and incubated at 25° C. for 72 hours during which the samples were alternately exposed to light for 12 hours and to darkness for 12 hours. Growth was measured at the end of the incubation period by measuring the diameter of each fungus colony. Two measurements of the diameter, perpendicular to each other, were taken and the values averaged. Data are reported as percent inhibition (%I) by the following formula: [formula] Captan and chlorothalonil were used as standards for comparison.

In the case of `Nc1ccc(Oc2nsnc(Cl)c2=O)cc1` [Compound 26, 5-(4-aminophenoxy)-3-chloro-4H--1,2,6-thiadiazin-4-one], the inhibition at 20 ppm under setting [1] came to 57%. Moreover, the “Percent Fungus Growth Inhibition” value reads like this: (5 ppm) 43%; (40 ppm) 100%.
For `Nc1ccc(Oc2nsnc(Cl)c2=O)cc1` [Compound 27, 5-(4-aminophenoxy)-3-chloro-4H--1,2,6-thiadiazine-4-one hydrochloride], the “Percent Fungus Growth Inhibition” value came out at 0% (5 ppm, hydrochloride); 21% (10 ppm, hydrochloride); 43% (20 ppm, hydrochloride); 57% (40 ppm, hydrochloride).
As to `CNC(=O)Nc1ccc(Oc2nsnc(Cl)c2=O)cc1` [Compound 28, 3-chloro-5-[4-(3-methylureido)-phenoxy]-4H--1,2,6-thiadiazin-4-one], under setting [2], the inhibition at 5 ppm worked out at 29%. Further, the inhibition at 10 ppm under setting [3] was determined as 29%. Moreover, under setting [1], the inhibition at 20 ppm came out at 21%. Under setting [4], the inhibition at 40 ppm was found to be 64%.
`O=C(Nc1ccccc1)Nc1ccc(Oc2nsnc(Cl)c2=O)cc1` [Compound 29, 3-chloro-5-[4-(3-phenylureido)-phenoxy]-4H--1,2,6-thiadiazin-4-one]: under setting [2], the inhibition at 5 ppm was determined as 0%. Also, the inhibition at 10 ppm under setting [3] is 0%. Moreover, the inhibition at 20 ppm under setting [1] was determined as 14%. Besides, under setting [4], the inhibition at 40 ppm came to 0%.
In the case of `O=c1c(Cl)nsnc1Oc1c(Cl)cc(Cl)cc1Cl` [Compound 30, 3-chloro-5-(2,4,6-trichlorophenoxy)-4H--1,2,6-thiadiazin-4-one], the inhibition at 5 ppm under setting [2] is 59%. Moreover, under setting [3], the inhibition at 10 ppm worked out at 100%. The inhibition at 20 ppm under setting [1] stood at 100%. Also, the inhibition at 40 ppm under setting [4] came to 100%.
Take `O=c1c(Cl)nsnc1Oc1c(Cl)c(Cl)c(Cl)c(Cl)c1Cl` [Compound 31, 3-chloro-5-(pentachlorophenoxy)-4H--1,2,6-thiadiazine-4-one]: the inhibition at 5 ppm under setting [2] was 57%. Under setting [3], the inhibition at 10 ppm amounted to 86%. In addition, the inhibition at 20 ppm under setting [1] came to 57%. Besides, the inhibition at 40 ppm under setting [4] amounted to 100%.
Turning to `O=c1c(Cl)nsnc1Oc1cccc2ccccc12` [Compound 32, 3-chloro-5(1-naphthoxy)-4H-1,2,6-thiadiazin-4-one], the inhibition at 5 ppm under setting [2] worked out at 100%. The inhibition at 10 ppm under setting [3] was found to be 63%. For the same compound, the inhibition at 20 ppm under setting [1] came out at 100%. The inhibition at 40 ppm under setting [4] was 100%.
With `O=c1c(Cl)nsnc1Oc1ccccc1Br` [Compound 34, 3-chloro-5-(2-bromophenoxy)-4H-1,2,6,-thiadiazin-4-one], the inhibition at 5 ppm under setting [2] was 74%. Under setting [3], the inhibition at 10 ppm is 74%. The inhibition at 20 ppm under setting [1] came out at 100%. The inhibition at 40 ppm under setting [4] turned out to be 100%.
On to `O=c1c(Cl)nsnc1Oc1ccc(O)cc1` [Compound 35, 3-chloro-5-(4-hydroxyphenoxy)-4H-1,2,6-thiadiazin-4-one], for which the inhibition at 5 ppm under setting [2] stood at 83%. Further, under setting [3], the inhibition at 10 ppm worked out at 100%. Moreover, the inhibition at 20 ppm under setting [1] turned out to be 89%. Under setting [4], the inhibition at 40 ppm is 100%.
Regarding `O=C(Nc1ccccc1)Oc1ccc(Oc2nsnc(Cl)c2=O)cc1` [Compound 37, 3-chloro-5-[4-(phenylaminocarbonyloxy)phenoxy]-4H-1,2,6,-thiadiazin-4-one], under setting [5], the inhibition at 5 ppm is 27%, the inhibition at 10 ppm came out at 13%, the inhibition at 20 ppm came to 60% and the inhibition at 40 ppm came to 47%.
`O=C(OCc1ccccc1)Oc1ccc(Oc2nsnc(Cl)c2=O)cc1` [Compound 38, 3-chloro-5-[4-(phenylmethoxycarbonyloxy)phenoxyl]-4H-1,2,6-thiadiazin-4-one]: the inhibition at 5 ppm under setting [2] is 56%. Moreover, the inhibition at 10 ppm under setting [3] was found to be 39%. Moreover, the inhibition at 20 ppm under setting [1] was determined as 89%. The inhibition at 40 ppm under setting [4] came out at 100%.
With `CSc1ccc(Oc2nsnc(Cl)c2=O)cc1` [Compound 39, 3-chloro-5-[(4-methylthio)phenoxy]-4H-1,2,6,-thiadiazin-4-one], the inhibition at 5 ppm under setting [2] is 73%. Also, the inhibition at 10 ppm under setting [3] was 87%. Moreover, under setting [1], the inhibition at 20 ppm came out at 100%. The inhibition at 40 ppm under setting [4] stood at 80%.
In the same order, the values of `C[S+]([O-])c1ccc(Oc2nsnc(Cl)c2=O)cc1` (stereo not drawn) [Compound 40, 3-chloro-5-[(4-methylsulfinyl)phenoxy]-4H-1,2,6,-thiadiazin-4-one] are 40%, 60%, 87% and 100%.
Take `CC(=O)Nc1cccc(Oc2nsnc(Cl)c2=O)c1` [Compound 42, 3-[(3-N--acetylamino)-phenoxy]-5-chloro-4H--1,2,6-thiadiazin-4-one]: under setting [2], the inhibition at 5 ppm worked out at 23%. For the same compound, the inhibition at 10 ppm under setting [3] was 38%. The inhibition at 20 ppm under setting [1] stood at 100%. Under setting [4], the inhibition at 40 ppm is 100%.
Regarding `CC(=O)Nc1ccccc1Oc1nsnc(Cl)c1=O` [Compound 43, 3-[(2-acetylamino)-phenoxy]-5-chloro-4H--1,2,6-thiadiazin-4-one], the inhibition at 5 ppm under setting [2] was determined as 61%. Also, the inhibition at 10 ppm under setting [3] was determined as 70%. In addition, the inhibition at 20 ppm under setting [1] came to 65%. Moreover, the inhibition at 40 ppm under setting [4] amounted to 91%.
In the case of `O=c1c(Cl)nsnc1Oc1cccc(C(F)(F)F)c1` [Compound 44, 3-chloro-5-[(3-trifluoromethyl)phenoxy]-4H--1,2,6-thiadiazin-4-one], the inhibition at 5 ppm under setting [2] came to 100%. Besides, the inhibition at 10 ppm under setting [3] came to 100%. Also, the inhibition at 20 ppm under setting [1] was 100%. In addition, the inhibition at 40 ppm under setting [4] worked out at 100%.
Turning to `O=C(O)Cc1ccccc1Oc1nsnc(Cl)c1=O` [Compound 45, 3-(2-carboxymethylphenoxy)-5-chloro-4H--1,2,6-thiadiazin-4-one], the inhibition at 5 ppm under setting [2] was found to be 0%. Moreover, the inhibition at 10 ppm under setting [3] was 0%. Further, the inhibition at 20 ppm under setting [1] worked out at 63%. For the same compound, the inhibition at 40 ppm under setting [4] worked out at 100%.
Turning to `N#CCc1ccc(Oc2nsnc(Cl)c2=O)cc1` [Compound 46, 3-chloro-5-[(4-cyanomethyl)-phenoxy]4H--1,2,6-thiadiazin-4-one], the inhibition at 5 ppm under setting [2] turned out to be 67%. For the same compound, the inhibition at 10 ppm under setting [3] was 89%. Besides, under setting [1], the inhibition at 20 ppm turned out to be 100%. Moreover, under setting [4], the inhibition at 40 ppm amounted to 100%.
Turning to `CC(=O)c1ccc(Oc2nsnc(Cl)c2=O)cc1` [Compound 47, 3-(4-acetylphenoxy)-5-chloro-4H--1,2,6-thiadiazin-4-one], the inhibition at 5 ppm under setting [2] was found to be 75%. Besides, the inhibition at 10 ppm under setting [3] was 88%. Further, the inhibition at 20 ppm under setting [1] worked out at 100%. Besides, the inhibition at 40 ppm under setting [4] was 100%.
As to `CC(=O)c1cccc(Oc2nsnc(Cl)c2=O)c1` [Compound 48, 3-(3-acetylphenoxy)-5-chloro-4H--1,2,6-thiadiazin-4-one], under setting [2], the inhibition at 5 ppm worked out at 100%. Also, the inhibition at 10 ppm under setting [3] worked out at 63%. In addition, the inhibition at 20 ppm under setting [1] worked out at 100%. In addition, under setting [4], the inhibition at 40 ppm amounted to 100%.
`CC(=O)c1ccccc1Oc1nsnc(Cl)c1=O` [Compound 49, 3-(2-acetylphenoxy)-5-chloro-4H--1,2,6-thiadiazin-4-one]: under setting [2], the inhibition at 5 ppm came to 74%. In addition, the inhibition at 10 ppm under setting [3] was 100%. For the same compound, the inhibition at 20 ppm under setting [1] stood at 100%. Moreover, the inhibition at 40 ppm under setting [4] was determined as 100%.
As to `O=C(O)c1ccc(Oc2nsnc(Cl)c2=O)cc1` [Compound 50, 3-(4-carboxyphenoxy)-5-chloro-4H--1,2,6-thiadiazin-4-one], the inhibition at 5 ppm under setting [2] stood at 75%. Further, the inhibition at 10 ppm under setting [3] was 38%. Moreover, the inhibition at 20 ppm under setting [1] was found to be 100%. Besides, under setting [4], the inhibition at 40 ppm turned out to be 100%.
In the case of `COc1ccc(Cl)c(Oc2nsnc(Cl)c2=O)c1` [Compound 51, 3-chloro-5-[(2-chloro-5-methoxy)phenoxy]-4H--1,2,6-thiadiazin-4-one], the inhibition at 5 ppm under setting [2] worked out at 78%. Moreover, under setting [3], the inhibition at 10 ppm worked out at 100%. Further, the inhibition at 20 ppm under setting [1] worked out at 100%. In addition, under setting [4], the inhibition at 40 ppm was 100%.
On to `O=c1c(Cl)nsnc1Oc1ccc([N+](=O)[O-])cc1Cl` [Compound 53, 3-chloro-5-(2-chloro-4-nitrophenoxy)-4H--1,2,6-thiadiazin-4-one], for which, under setting [2], the inhibition at 5 ppm was found to be 27%. In addition, the inhibition at 10 ppm under setting [3] came out at 100%. The inhibition at 20 ppm under setting [1] stood at 100%. Besides, the inhibition at 40 ppm under setting [4] came to 100%.
As to `Cc1cc(Oc2nsnc(Cl)c2=O)ccc1Cl` [Compound 54, 3-chloro-5-(4-chloro-3-methylphenoxy)-4H--1,2,6-thiadiazin-4-one], the inhibition at 5 ppm under setting [2] was determined as 43%. For the same compound, the inhibition at 10 ppm under setting [3] came to 91%. In addition, the inhibition at 20 ppm under setting [1] came out at 73%. Besides, the inhibition at 40 ppm under setting [4] was 100%.
Consider `Cc1cc(Cl)ccc1Oc1nsnc(Cl)c1=O` [Compound 55, 3-chloro-5-(4-chloro-2-methylphenoxy)-4H--1,2,6-thiadiazin-4-one], for which the inhibition at 5 ppm under setting [2] was 100%. The inhibition at 10 ppm under setting [3] turned out to be 100%. Besides, under setting [1], the inhibition at 20 ppm worked out at 91%. Also, the inhibition at 40 ppm under setting [4] amounted to 100%.
Turning to `Cc1ccc(Cl)c(Oc2nsnc(Cl)c2=O)c1` [Compound 56, 3-chloro-5-[(2-chloro-5-methyl)phenoxy]-4H--1,2,6-thiadiazin-4-one], the inhibition at 5 ppm under setting [2] stood at 67%. The inhibition at 10 ppm under setting [3] worked out at 100%. Moreover, the inhibition at 20 ppm under setting [1] came out at 100%. The inhibition at 40 ppm under setting [4] was found to be 100%.
In the case of `Cc1ccc(Oc2nsnc(Cl)c2=O)c(Br)c1` [Compound 57, 3-[(2-bromo-4-methyl)-phenoxy]-5-chloro-4H--1,2,6-thiadiazin-4-one], the inhibition at 5 ppm under setting [2] worked out at 100%. Besides, the inhibition at 10 ppm under setting [3] was determined as 100%. Moreover, the inhibition at 20 ppm under setting [1] is 100%. Under setting [4], the inhibition at 40 ppm came to 100%.
For `Cc1cc(Cl)c(Oc2nsnc(Cl)c2=O)cc1C` [Compound 58, 3-chloro-5-[(2-chloro-4,5-dimethyl)phenoxy]-4H--1,2,6-thiadiazin-4-one], the inhibition at 5 ppm under setting [2] was 54%. Moreover, under setting [3], the inhibition at 10 ppm worked out at 54%. For the same compound, the inhibition at 20 ppm under setting [1] worked out at 69%. Further, the inhibition at 40 ppm under setting [4] came to 69%.
As for `Cc1cc(Oc2nsnc(Cl)c2=O)cc(C)c1Cl` [Compound 59, 3-chloro-5-[(4-chloro-3,5-dimethyl)phenoxy]-4H--1,2,6-thiadiazin-4-one], the inhibition at 5 ppm under setting [2] came to 100%. For the same compound, under setting [3], the inhibition at 10 ppm was 100%. Further, the inhibition at 20 ppm under setting [1] amounted to 100%. Moreover, the inhibition at 40 ppm under setting [4] is 100%.
For `Cc1cc(Oc2nsnc(Cl)c2=O)cc(C)c1Br` [Compound 60, 3-[(4-bromo-3,5-dimethyl)-phenoxy]-5-chloro-4H--1,2,6-thiadiazin-4-one], under setting [2], the inhibition at 5 ppm was determined as 100%. In addition, under setting [3], the inhibition at 10 ppm came out at 77%. Further, the inhibition at 20 ppm under setting [1] was found to be 69%. Besides, the inhibition at 40 ppm under setting [4] was 100%.

For the origin of these results see patent publication US4450269A, “Mono-5-substituted-3-chloro-4H-1,2,6-thiadiazin-4-one antifungal agents” (FMC Corporation, priority 1980, dated 1984).
